Key:
EcBdh = molecular target: T1, EcBdh (Enterobacter cloacae, UniProt G8FSA9); test: NADH consumption at […] nm; type: biochemical; details: 0.25 mM NADH, 25 mM acetoin, 100 mM potassium phosphate pH 7.0; racemic acetoin
T1 construct: gene dar; full length, N-terminal His6 and TEV site (cleavage not described), gene amplified from Z. mobilis strain BC-11B, expressed in Zymomonas mobilis 9C, purified

SmBdh = molecular target: T2, SmBdh (Serratia marcescens, UniProt H9XP47); test: X-ray crystal structure, […] A; type: binding
T2 construct: gene budC; full length, N-terminal His6 and TEV site after start codon (cleavage not described), codon-optimized, expressed in Zymomonas mobilis 9C; tetramer, site completed by Gln247 of the symmetry-related chain
T2 sequence (H9XP47 2-251): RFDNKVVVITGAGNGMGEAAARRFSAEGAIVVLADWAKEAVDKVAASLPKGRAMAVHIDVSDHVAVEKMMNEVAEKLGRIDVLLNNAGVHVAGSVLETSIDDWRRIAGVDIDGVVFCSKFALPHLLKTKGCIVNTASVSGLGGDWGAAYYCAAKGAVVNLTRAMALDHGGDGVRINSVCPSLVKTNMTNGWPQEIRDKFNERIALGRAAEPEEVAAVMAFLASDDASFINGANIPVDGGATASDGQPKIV

crystal structure = molecular target: the molecule itself; test: crystal structure

T1 sequence (G8FSA9 1-256): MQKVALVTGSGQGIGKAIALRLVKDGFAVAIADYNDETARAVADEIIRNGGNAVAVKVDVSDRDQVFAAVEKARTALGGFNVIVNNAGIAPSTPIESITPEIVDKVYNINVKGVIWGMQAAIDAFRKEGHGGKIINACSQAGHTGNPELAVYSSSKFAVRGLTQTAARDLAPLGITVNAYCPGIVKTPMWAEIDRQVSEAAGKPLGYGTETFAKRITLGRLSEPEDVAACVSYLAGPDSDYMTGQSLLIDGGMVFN

For `NC(=O)C1=CN([C@@H]2O[C@H](COP(=O)(O)OP(=O)(O)OC[C@H]3O[C@@H](n4cnc5c(N)ncnc54)[C@H](O)[C@@H]3O)[C@@H](O)[C@H]2O)C=CC1` [NADH], the “NADH consumption at 340 nm” value (EcBdh) was “subjected to activity analysis using the NADH consumption assay”.

For `CC(=O)[C@@H](C)O` [(3R)-acetoin], the “X-ray crystal structure, 2.0 A” value (SmBdh; NAD+ bound, active site of closed molecule A, modelled together with (3S)-acetoin from racemate) was “both (3R)- and (3S)-acetoin molecules bound in the pocket”.

With `CC(=O)[C@H](C)O` [(3S)-acetoin] the “X-ray crystal structure, 2.0 A” value (SmBdh; NAD+ bound, active site of closed molecule A, modelled together with (3R)-acetoin from racemate) was “both (3R)- and (3S)-acetoin molecules bound in the pocket”.

With `Nc1ncnc2c1ncn2[C@@H]1O[C@H](COP(=O)(O)OP(=O)(O)O)[C@@H](O)[C@H]1O` [ADP] the “X-ray crystal structure, 2.0 A” value (SmBdh; cofactor site of open molecule B, only NAD+ was added in crystallization) was “the corresponding space is occupied by only adenine diphosphate”.

`NC(=O)c1ccc[n+]([C@@H]2O[C@H](COP(=O)(O)OP(=O)(O)OC[C@H]3O[C@@H](n4cnc5c(N)ncnc54)[C@H](O)[C@@H]3O)[C@@H](O)[C@H]2O)c1` [NAD^+] was tested, and the “X-ray crystal structure, 2.0 A” value (SmBdh; cofactor site of closed molecule A, with acetoin) was “locate NAD ^+ cofactor molecule and acetoin molecules in protein molecule A”.

`CC(=O)C(C)O` (racemic) [acetoin] was tested, and the “NADH consumption at 340 nm” value (EcBdh) was “Proteins were expressed in the Z. mobilis 9C strain, purified to homogeneity”.

B1: Serratia marcescens 2,3-butanediol dehydrogenase, wild type (N-term SmBdh) (enzyme, UniProt H9XP47 1-251, looked up)
chain: MRFDNKVVVITGAGNGMGEAAARRFSAEGAIVVLADWAKEAVDKVAASLPKGRAMAVHIDVSDHVAVEKMMNEVAEKLGRIDVLLNNAGVHVAGSVLETSIDDWRRIAGVDIDGVVFCSKFALPHLLKTKGCIVNTASVSGLGGDWGAAYYCAAKGAVVNLTRAMALDHGGDGVRINSVCPSLVKTNMTNGWPQEIRDKFNERIALGRAAEPEEVAAVMAFLASDDASFINGANIPVDGGATASDGQPKIV
notes: tag and TEV site placed immediately after the start codon; also called WT SmBdh; WT SmBDH; source: Z. mobilis strain 9C, purified (HisTrap, size exclusion chromatography)
B1 was tested, and the “stoichiometry N” value (crystal structure) was 4.

B2: Serratia marcescens 2,3-butanediol dehydrogenase Q247A mutant (enzyme)
chain: MRFDNKVVVITGAGNGMGEAAARRFSAEGAIVVLADWAKEAVDKVAASLPKGRAMAVHIDVSDHVAVEKMMNEVAEKLGRIDVLLNNAGVHVAGSVLETSIDDWRRIAGVDIDGVVFCSKFALPHLLKTKGCIVNTASVSGLGGDWGAAYYCAAKGAVVNLTRAMALDHGGDGVRINSVCPSLVKTNMTNGWPQEIRDKFNERIALGRAAEPEEVAAVMAFLASDDASFINGANIPVDGGATASDGAPKIV
notes: also called SmBdh Q247A; Q247A SmBdh; source: Z. mobilis strain 9C, purified (HisTrap, size exclusion chromatography)
B2: binds (crystal structure).

B3: Serratia marcescens 2,3-butanediol dehydrogenase Q247A + V139Q double mutant (enzyme)
chain: MRFDNKVVVITGAGNGMGEAAARRFSAEGAIVVLADWAKEAVDKVAASLPKGRAMAVHIDVSDHVAVEKMMNEVAEKLGRIDVLLNNAGVHVAGSVLETSIDDWRRIAGVDIDGVVFCSKFALPHLLKTKGCIVNTASQSGLGGDWGAAYYCAAKGAVVNLTRAMALDHGGDGVRINSVCPSLVKTNMTNGWPQEIRDKFNERIALGRAAEPEEVAAVMAFLASDDASFINGANIPVDGGATASDGAPKIV
notes: also called SmBdh Q247A + V139Q; Q247A + V139Q SmBdh; source: Z. mobilis strain 9C, purified (HisTrap, size exclusion chromatography)
B3: binds (crystal structure).

Source: paper PMC7656694 (Biotechnology for Biofuels, 2020)
